Measurements as given in patent US6111103A, “Diresorcinyl-alkoxy- and -aryloxy-s-triazines” (Ciba Specialty Chemicals Corporation, priority 1998, dated 2000).

Columns and labels:
[1] = UV/Vis absorption (λmax, ε); assay type: physicochemical; parameters: ε at λmax: unit not given beside the values
[2] = Solubility in ethanol (25° C.); assay type: physicochemical

Compound | UV/Vis λmax ([1]; EtOH) [nm] | ε at λmax ([1]; EtOH) | Solubility in ethanol [2] [%] | UV/Vis λmax ([1]; Dioxan) [nm] | ε at λmax ([1]; Dioxan)
CCCCCCCCCCCCC(CCCCCCCCCC)COc1nc(-c2ccc(O)cc2O)nc(-c2ccc(O)cc2O)n1 (stereo not drawn) [compound 101] | 350 | 34482 |  |  | 
CCCCCCCCC(CCCCCC)COc1nc(-c2ccc(OC)cc2O)nc(-c2ccc(OC)cc2O)n1 (stereo not drawn) [compound 111] | 348 | 34123 |  |  | 
COc1nc(-c2ccc(O)cc2O)nc(-c2ccc(O)cc2O)n1 [compound 107] | 350 | 36949 | 0.08 |  | 
CCCCC(CC)COc1nc(-c2ccc(O)cc2O)nc(-c2ccc(O)cc2O)n1 (stereo not drawn) [compound 102] | 350 | 39177 | 1.50 |  | 
CCCCCCCCCCCCCCCCCCOc1nc(-c2ccc(O)cc2O)nc(-c2ccc(O)cc2O)n1 [compound 105] | 350 | 31662 |  |  | 
CCCCCCCCC(CCCCCC)COc1nc(-c2ccc(O)cc2O)nc(-c2ccc(O)cc2O)n1 (stereo not drawn) [compound 104] | 351 | 36148 |  |  | 
COc1ccc(-c2nc(OC)nc(-c3ccc(OC)cc3O)n2)c(O)c1 [compound 112] |  |  |  | 347 | 37680
CCCCCCCCCCCCC(CCCCCCCCCC)COc1nc(-c2ccc(OC)cc2O)nc(-c2ccc(OC)cc2O)n1 (stereo not drawn) [compound 110] |  |  |  | 347 | 36219
CCOc1nc(-c2ccc(O)cc2O)nc(-c2ccc(O)cc2O)n1 [compound 108] | 350 | 36761 | 0.17 |  | 
